For one compound, IC50 results are on record in BindingDB's records for doi:10.1021/jm301365e (Sichuan University, 2012).

SMILES strings stand for the structures.

For the experiment, the target named is Tyrosine-protein kinase SYK (Homo sapiens) (UniProt P43405). Nature of the experiment: Inhibition of human recombinant SYK by radiometric kinase assay.

Broadly, the IC50 is the concentration at which inhibition is half-maximal. For the compound `CN1CCN(c2ccc(Nc3ncc4nc(Nc5ccccc5)n(C5CCCC5)c4n3)cc2)CC1`, the IC50 turned out to be 720 nM.
